These results are taken from PubChem BioAssay AID2060497 (Molecular Pharmacology Branch, DTP, NCI, 2025).
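Further: spheroids exposed to compounds for one week before readout.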
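Wherever viability, T/C is given: percent viability relative to DMSO vehicle wells taken as 100%.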

The test system of one experiment is 317291-083-R-J1-PDC complex spheroids, viability. As to the kind of experiment: Anticancer human tumor 317291-083-R-J1-PDC patient-derived soft tissue sarcoma cell line growth inhibition [GQUAD]. The note with it: curve of first compound; second compound 10 µM. The procedure, abridged: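 Multi-cell-type spheroids of tumor cells with HUVEC and mesenchymal stem cells, treated with drug combinations. Concentrations descend in half-log steps from near clinical Cmax, or from 10 microM where Cmax is unknown; viability read-out.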
For the compound `C=CC(=O)N1CCN(c2nc(=O)n(-c3c(C)ccnc3C(C)C)c3nc(-c4c(O)cccc4F)c(F)cc23)C(C)C1` (stereo unspecified) + CN(C)c1ccc(Nc2c3ccc(NC(=O)CCN4CCCC4)cc3nc3cc(NC(=O)CCN4CCCC4)ccc23)cc1, the IC50 is less than 31.6 nM.
Still for that read-out and setting: in the case of `C=CC(=O)N1CCN(c2nc(=O)n(-c3c(C)ccnc3C(C)C)c3nc(-c4c(O)cccc4F)c(F)cc23)C(C)C1` (stereo unspecified) + Cc1cnc(CNC(=O)c2c(=O)c3ccc(N4CCCN(C)CC4)nc3n3c2sc2ccccc23)cn1 it was less than 31.6 nM; in that of `COc1cc(C2c3cc4c(cc3C(OC3OC5COC(C)OC5C(O)C3O)C3COC(=O)C23)OCO4)cc(OC)c1O` (stereo unspecified) + Cc1[nH]c2ccc(F)cc2c1-c1nc2c3cccnc3c3ncccc3c2[nH]1, 222 nM.
As for `O=C(NO)c1cnc(N2CCN(S(=O)(=O)c3ccc4ccccc4c3)CC2)nc1` + Cc1cnc(CNC(=O)c2c(=O)c3ccc(N4CCCN(C)CC4)nc3n3c2sc2ccccc23)cn1, the IC50 is less than 31.6 nM.

Still in this experiment, the particulars now being: second compound 0.0316 µM; first compound 0.0316 µM; stronger effect = lower value.
`CC(C)(O)C1CCC(Nc2ccc3ncc(-c4cccc(C(F)(F)F)c4)n3n2)CC1` (stereo unspecified) + CN(C)c1ccc(Nc2c3ccc(NC(=O)CCN4CCCC4)cc3nc3cc(NC(=O)CCN4CCCC4)ccc23)cc1: the viability, T/C was 103%.
As for `C=CC(=O)N1CCN(c2nc(=O)n(-c3c(C)ccnc3C(C)C)c3nc(-c4c(O)cccc4F)c(F)cc23)C(C)C1` (stereo unspecified) + CN(C)c1ccc(Nc2c3ccc(NC(=O)CCN4CCCC4)cc3nc3cc(NC(=O)CCN4CCCC4)ccc23)cc1, the viability, T/C is 105%.
On the same count and under the same terms, in the case of `C=CC(=O)N1CCN(c2nc(=O)n(-c3c(C)ccnc3C(C)C)c3nc(-c4c(O)cccc4F)c(F)cc23)C(C)C1` (stereo unspecified) + Cc1cnc(CNC(=O)c2c(=O)c3ccc(N4CCCN(C)CC4)nc3n3c2sc2ccccc23)cn1 it was 101%.
Consider `COc1cc(C2c3cc4c(cc3C(OC3OC5COC(C)OC5C(O)C3O)C3COC(=O)C23)OCO4)cc(OC)c1O` (stereo unspecified) + Cc1[nH]c2ccc(F)cc2c1-c1nc2c3cccnc3c3ncccc3c2[nH]1, for which the viability, T/C was 103%.
Consider `O=C(NO)c1cnc(N2CCN(S(=O)(=O)c3ccc4ccccc4c3)CC2)nc1` + Cc1cnc(CNC(=O)c2c(=O)c3ccc(N4CCCN(C)CC4)nc3n3c2sc2ccccc23)cn1, for which the viability, T/C was 82.5%.

Staying with this experiment, now noted: second compound 0.0316 µM; first compound 0.1 µM; stronger effect = lower value.
With `CC(C)(O)C1CCC(Nc2ccc3ncc(-c4cccc(C(F)(F)F)c4)n3n2)CC1` (stereo unspecified) + CN(C)c1ccc(Nc2c3ccc(NC(=O)CCN4CCCC4)cc3nc3cc(NC(=O)CCN4CCCC4)ccc23)cc1, the viability, T/C is 106%.
On the same count and under the same terms, in the case of `C=CC(=O)N1CCN(c2nc(=O)n(-c3c(C)ccnc3C(C)C)c3nc(-c4c(O)cccc4F)c(F)cc23)C(C)C1` (stereo unspecified) + CN(C)c1ccc(Nc2c3ccc(NC(=O)CCN4CCCC4)cc3nc3cc(NC(=O)CCN4CCCC4)ccc23)cc1 it was 90.8%.
With `C=CC(=O)N1CCN(c2nc(=O)n(-c3c(C)ccnc3C(C)C)c3nc(-c4c(O)cccc4F)c(F)cc23)C(C)C1` (stereo unspecified) + Cc1cnc(CNC(=O)c2c(=O)c3ccc(N4CCCN(C)CC4)nc3n3c2sc2ccccc23)cn1, the viability, T/C is 84.2%.
For the compound `COc1cc(C2c3cc4c(cc3C(OC3OC5COC(C)OC5C(O)C3O)C3COC(=O)C23)OCO4)cc(OC)c1O` (stereo unspecified) + Cc1[nH]c2ccc(F)cc2c1-c1nc2c3cccnc3c3ncccc3c2[nH]1, the viability, T/C is 93%.
Same read-out and setting: in the case of `O=C(NO)c1cnc(N2CCN(S(=O)(=O)c3ccc4ccccc4c3)CC2)nc1` + Cc1cnc(CNC(=O)c2c(=O)c3ccc(N4CCCN(C)CC4)nc3n3c2sc2ccccc23)cn1 it was 53.5%.

Still in this experiment, the particulars now being: second compound 0.0316 µM; first compound 0.316 µM; stronger effect = lower value.
As to `CC(C)(O)C1CCC(Nc2ccc3ncc(-c4cccc(C(F)(F)F)c4)n3n2)CC1` (stereo unspecified) + CN(C)c1ccc(Nc2c3ccc(NC(=O)CCN4CCCC4)cc3nc3cc(NC(=O)CCN4CCCC4)ccc23)cc1, the viability, T/C was 99.8%.
Same read-out and setting: in the case of `C=CC(=O)N1CCN(c2nc(=O)n(-c3c(C)ccnc3C(C)C)c3nc(-c4c(O)cccc4F)c(F)cc23)C(C)C1` (stereo unspecified) + CN(C)c1ccc(Nc2c3ccc(NC(=O)CCN4CCCC4)cc3nc3cc(NC(=O)CCN4CCCC4)ccc23)cc1 it was 114%; in that of `C=CC(=O)N1CCN(c2nc(=O)n(-c3c(C)ccnc3C(C)C)c3nc(-c4c(O)cccc4F)c(F)cc23)C(C)C1` (stereo unspecified) + Cc1cnc(CNC(=O)c2c(=O)c3ccc(N4CCCN(C)CC4)nc3n3c2sc2ccccc23)cn1, 101%; in that of `COc1cc(C2c3cc4c(cc3C(OC3OC5COC(C)OC5C(O)C3O)C3COC(=O)C23)OCO4)cc(OC)c1O` (stereo unspecified) + Cc1[nH]c2ccc(F)cc2c1-c1nc2c3cccnc3c3ncccc3c2[nH]1, 59.5%.
Still for that read-out and setting: in the case of `O=C(NO)c1cnc(N2CCN(S(=O)(=O)c3ccc4ccccc4c3)CC2)nc1` + Cc1cnc(CNC(=O)c2c(=O)c3ccc(N4CCCN(C)CC4)nc3n3c2sc2ccccc23)cn1 it was 7.38%.

The same experiment, now with this note: second compound 0.0316 µM; first compound 1 µM; stronger effect = lower value.
Consider `CC(C)(O)C1CCC(Nc2ccc3ncc(-c4cccc(C(F)(F)F)c4)n3n2)CC1` (stereo unspecified) + CN(C)c1ccc(Nc2c3ccc(NC(=O)CCN4CCCC4)cc3nc3cc(NC(=O)CCN4CCCC4)ccc23)cc1, for which the viability, T/C was 37.1%.
On to `C=CC(=O)N1CCN(c2nc(=O)n(-c3c(C)ccnc3C(C)C)c3nc(-c4c(O)cccc4F)c(F)cc23)C(C)C1` (stereo unspecified) + CN(C)c1ccc(Nc2c3ccc(NC(=O)CCN4CCCC4)cc3nc3cc(NC(=O)CCN4CCCC4)ccc23)cc1, for which the viability, T/C is 113%.
Still for that read-out and setting: in the case of `C=CC(=O)N1CCN(c2nc(=O)n(-c3c(C)ccnc3C(C)C)c3nc(-c4c(O)cccc4F)c(F)cc23)C(C)C1` (stereo unspecified) + Cc1cnc(CNC(=O)c2c(=O)c3ccc(N4CCCN(C)CC4)nc3n3c2sc2ccccc23)cn1 it was 92.8%; in that of `COc1cc(C2c3cc4c(cc3C(OC3OC5COC(C)OC5C(O)C3O)C3COC(=O)C23)OCO4)cc(OC)c1O` (stereo unspecified) + Cc1[nH]c2ccc(F)cc2c1-c1nc2c3cccnc3c3ncccc3c2[nH]1, 25.2%.
On the same count and under the same terms, in the case of `O=C(NO)c1cnc(N2CCN(S(=O)(=O)c3ccc4ccccc4c3)CC2)nc1` + Cc1cnc(CNC(=O)c2c(=O)c3ccc(N4CCCN(C)CC4)nc3n3c2sc2ccccc23)cn1 it was 0.63%.

Still in this experiment, the particulars now being: second compound 0.0316 µM; first compound 3.16 µM; stronger effect = lower value.
As to `CC(C)(O)C1CCC(Nc2ccc3ncc(-c4cccc(C(F)(F)F)c4)n3n2)CC1` (stereo unspecified) + CN(C)c1ccc(Nc2c3ccc(NC(=O)CCN4CCCC4)cc3nc3cc(NC(=O)CCN4CCCC4)ccc23)cc1, the viability, T/C is 0.9%.
The same measure, in the same setting: in the case of `C=CC(=O)N1CCN(c2nc(=O)n(-c3c(C)ccnc3C(C)C)c3nc(-c4c(O)cccc4F)c(F)cc23)C(C)C1` (stereo unspecified) + CN(C)c1ccc(Nc2c3ccc(NC(=O)CCN4CCCC4)cc3nc3cc(NC(=O)CCN4CCCC4)ccc23)cc1 it was 98.4%.
